The values below come from BindingDB's records for doi:10.1021/jm0499108 (University of Michigan, 2004).

The test concerns the target T1, E3 ubiquitin-protein ligase XIAP [241-356] (Homo sapiens, UniProt P98170).
T1 construct: 241-356
Nature of the test: Fluorescence Polarization Competitive Binding Assay. Conditions: pH 7.5; 22 °C.

T1 sequence (P98170 241-356): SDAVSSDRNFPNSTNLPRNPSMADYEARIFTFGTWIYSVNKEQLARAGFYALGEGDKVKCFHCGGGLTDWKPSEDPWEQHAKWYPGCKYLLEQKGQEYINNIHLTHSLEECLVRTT
Method: A quantitative in vitro binding assay using the fluorescence polarization (FP) based method was developed and used to determine the binding affinity of Smac mimetics to XIAP protein. The polarization values were measured after 3 hrs of incubation when the binding reached equilibrium. […] Curve fitting was performed using Prism ([sequence]). The binding affinity (Ki) of tested compound was calculated using the equation developed for computing the Ki value in FP-based binding assays.

Take `C[C@H](N)C(=O)N[C@H]1CC[C@H]2CC[C@@H](C(=O)Nc3ccccc3)N2C1=O` [(3S,6S,8aS)-6-[(2S)-2-aminopropanamido]-5-oxo-N-phenyl-octahydroindolizine-3-carboxamide]: the Ki (usually a measure of affinity in units of concentration, obtained from inhibition or displacement) is over 100 µM.
